Here are results for four compounds from patent US20150274719A1, “AMINO-SUBSTITUTED IMIDAZO[1,2-A]PYRIDINECARBOXAMIDES AND THEIR USE” (BAYER PHARMA AKTIENGESELLSCHAFT, priority 2012, published 2015).

The target of series [1] is T1, recombinant guanylate cyclase reporter cell line (Rattus norvegicus, UniProt P19686+P20595).
T1 construct: expressed in transfected cells; host or cells: recombinant reporter cell line
T1 sequence (P19686 1-690): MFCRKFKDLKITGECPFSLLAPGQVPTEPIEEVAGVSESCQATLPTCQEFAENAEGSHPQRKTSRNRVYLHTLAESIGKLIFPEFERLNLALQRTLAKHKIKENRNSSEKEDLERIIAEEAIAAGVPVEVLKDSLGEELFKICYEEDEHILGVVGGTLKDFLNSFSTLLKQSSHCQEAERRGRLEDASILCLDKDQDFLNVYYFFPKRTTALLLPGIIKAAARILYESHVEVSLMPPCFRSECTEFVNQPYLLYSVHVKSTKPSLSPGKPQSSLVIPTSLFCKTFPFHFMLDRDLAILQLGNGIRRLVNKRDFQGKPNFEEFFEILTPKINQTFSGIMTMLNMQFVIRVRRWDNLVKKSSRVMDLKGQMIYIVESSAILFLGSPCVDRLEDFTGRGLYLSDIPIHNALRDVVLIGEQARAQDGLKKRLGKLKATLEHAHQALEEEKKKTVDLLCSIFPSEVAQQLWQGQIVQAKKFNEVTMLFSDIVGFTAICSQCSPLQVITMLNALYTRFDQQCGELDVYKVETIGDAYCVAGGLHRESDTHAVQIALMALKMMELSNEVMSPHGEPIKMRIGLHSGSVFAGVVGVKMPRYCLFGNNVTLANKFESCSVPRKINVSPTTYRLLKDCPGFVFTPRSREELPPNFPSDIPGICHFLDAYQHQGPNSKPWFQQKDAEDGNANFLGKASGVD
T1 sequence (P20595 1-619): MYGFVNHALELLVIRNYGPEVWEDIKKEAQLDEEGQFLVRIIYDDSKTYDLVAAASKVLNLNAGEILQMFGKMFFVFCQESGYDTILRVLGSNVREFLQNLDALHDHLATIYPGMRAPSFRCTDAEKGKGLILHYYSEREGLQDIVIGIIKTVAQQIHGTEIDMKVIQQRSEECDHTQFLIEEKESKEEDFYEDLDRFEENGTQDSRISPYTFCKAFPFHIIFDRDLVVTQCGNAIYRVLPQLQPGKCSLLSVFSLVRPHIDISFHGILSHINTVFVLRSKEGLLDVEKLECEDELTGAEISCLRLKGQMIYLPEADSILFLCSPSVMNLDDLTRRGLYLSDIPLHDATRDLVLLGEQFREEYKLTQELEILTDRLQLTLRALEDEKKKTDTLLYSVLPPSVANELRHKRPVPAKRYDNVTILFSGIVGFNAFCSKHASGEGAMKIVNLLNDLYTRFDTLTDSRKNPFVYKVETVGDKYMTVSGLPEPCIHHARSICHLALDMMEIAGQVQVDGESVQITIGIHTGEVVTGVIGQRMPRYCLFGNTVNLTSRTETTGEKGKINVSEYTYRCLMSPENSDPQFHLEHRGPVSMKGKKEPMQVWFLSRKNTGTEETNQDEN
Kind of series: Action on recombinant guanylate cyclase reporter cell line. The class given is cell-based. The conditions noted are these: in some cases mean values from individual determinations. Summed up:
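Cellular activity was measured in a reporter cell line expressing recombinant guanylate cyclase. Values are given as MEC, the minimal effective concentration, and some are means of individual determinations.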

A short description of series [2]: Determination of pharmacokinetic parameters following intravenous and oral administration (rats). The class given is in vivo, male Wistar rats. The note with it: intravenous administration in rats. Summed up:
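Rats (male Wistar) dosed IV in plasma/DMSO formulation or orally by gavage in water/PEG400/ethanol; serial jugular-catheter blood sampling (usually >10 points, up to 24–72 h).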

The mark [3] stands for this setting: male, Wistar, rat, plasma, iv, read-out: MRT.

Each structure is given as a SMILES string. Like-named read-outs stand apart in the source and are kept apart here.

As for `Cc1cc(OCc2c(F)cccc2F)c2nc(C)c(C(=O)NCC(C)(N)CF)n2c1` (single isomer, unassigned; enantiomer b) [Example 284, ent-N-(2-amino-3-fluoro-2-methylpropyl)-8-[(2,6-difluorobenzyl)oxy]-2,6-dimethylimidazo[1,2-a]pyridine-3-carboxamide (Enantiomer B)], the “MEC (minimal effective concentration)” value in series [1] came to 0.1 µM. In addition, in series [2], the AUCnorm was found to be 1.20 kg·h/L; the CLblood was determined as 16.2 mL/min/kg; the MRT (in general, the average time that molecules of a dose stay in the body) is given as 5.3 h; the t1/2 worked out at 4.6 h.
In the case of `C#Cc1cc(OCc2c(F)cccc2F)c2nc(C)c(C(=O)NCC(C)(N)CCC)n2c1` (stereo not drawn) [Example 356, ent-N-(2-amino-2-methylpentyl)-8-[(2,6-difluorobenzyl)oxy]-6-ethynyl-2-methylimidazo[1,2-a]pyridine-3-carboxamide], the “MEC (minimal effective concentration)” value in series [1] is 0.10 µM. Further, in series [2], the AUCnorm was 0.61 kg·h/L and the CLblood was 16.3 mL/min/kg. Also, the half-life (usually how long it takes for the measured level to halve) in series [2] (male, Wistar, rat, plasma, iv) is 10.3 h. Moreover, in series [2] (setting [3]), the MRT was determined as 13.9 h.
Consider `Cc1cc(OCc2c(F)ccc(F)c2F)c2nc(C)c(C(=O)NCC(C)(N)CCC(F)(F)F)n2c1` (single isomer, unassigned) [Example 411, ent-N-(2-amino-5,5,5-trifluoro-2-methylpentyl)-2,6-dimethyl-8-[(2,3,6-trifluorobenzyl)oxy]imidazo[1,2-a]pyridine-3-carboxamide], for which the “MEC (minimal effective concentration)” value in series [1] stood at 0.03 µM. In series [2], this compound displayed an AUCnorm of 0.41 kg·h/L, a CLblood of 25.3 mL/min/kg, an MRT of 11.2 h and a t1/2 of 8.2 h.
In the case of `Cc1nc2c(OCc3c(F)cccc3F)cc(Cl)cn2c1C(=O)NCC(N)C(C)C` (single isomer, unassigned) [Example 211, ent-N-(2-Amino-3-methylbutyl)-6-chloro-8-[(2,6-difluorobenzyl)oxy]-2-methylimidazo[1,2-a]-pyridine-3-carboxamide], the “MEC (minimal effective concentration)” value in series [1] was 0.30 µM. Moreover, in series [2], the AUCnorm turned out to be 0.78 kg·h/L and the CLblood turned out to be 17.8 mL/min/kg. Further, the half-life in series [2] (male, Wistar, rat, plasma, iv) is 4.8 h. Besides, the MRT in series [2] (setting [3]) turned out to be 6.6 h.
